In ChEMBL document CHEMBL5634130, “Exploring the structural-activity relationship of hexahydropyrazino[1,2-d]pyrido[3,2-b][1,4]oxazine derivatives as potent and orally-bioavailable PARP7 inhibitors” (Eur J Med Chem, 2023):
≈ marks a conversion by molar mass, not a printed value. Calls of active or inactive are those of the source. The calls are words filed in the database; no cut-off is given here.

Assays:
[1] = Half life in fasted Beagle dog at 2 mg/kg, iv measured for 24 hrs by LC-MS analysis; assay type: ADME, organism-based, Canis lupus familiaris; conditions: in vivo
[2] = target: Voltage-gated inwardly rectifying potassium channel KCNH2 (Homo sapiens, UniProt Q12809); experiment: Inhibition of hERG transfected in HEK293 cells at <10 uM by electrography; assay type: toxicity, cell-based; conditions: hek293, 10 µM
Sequence of Voltage-gated inwardly rectifying potassium channel KCNH2 (Q12809 whole entry): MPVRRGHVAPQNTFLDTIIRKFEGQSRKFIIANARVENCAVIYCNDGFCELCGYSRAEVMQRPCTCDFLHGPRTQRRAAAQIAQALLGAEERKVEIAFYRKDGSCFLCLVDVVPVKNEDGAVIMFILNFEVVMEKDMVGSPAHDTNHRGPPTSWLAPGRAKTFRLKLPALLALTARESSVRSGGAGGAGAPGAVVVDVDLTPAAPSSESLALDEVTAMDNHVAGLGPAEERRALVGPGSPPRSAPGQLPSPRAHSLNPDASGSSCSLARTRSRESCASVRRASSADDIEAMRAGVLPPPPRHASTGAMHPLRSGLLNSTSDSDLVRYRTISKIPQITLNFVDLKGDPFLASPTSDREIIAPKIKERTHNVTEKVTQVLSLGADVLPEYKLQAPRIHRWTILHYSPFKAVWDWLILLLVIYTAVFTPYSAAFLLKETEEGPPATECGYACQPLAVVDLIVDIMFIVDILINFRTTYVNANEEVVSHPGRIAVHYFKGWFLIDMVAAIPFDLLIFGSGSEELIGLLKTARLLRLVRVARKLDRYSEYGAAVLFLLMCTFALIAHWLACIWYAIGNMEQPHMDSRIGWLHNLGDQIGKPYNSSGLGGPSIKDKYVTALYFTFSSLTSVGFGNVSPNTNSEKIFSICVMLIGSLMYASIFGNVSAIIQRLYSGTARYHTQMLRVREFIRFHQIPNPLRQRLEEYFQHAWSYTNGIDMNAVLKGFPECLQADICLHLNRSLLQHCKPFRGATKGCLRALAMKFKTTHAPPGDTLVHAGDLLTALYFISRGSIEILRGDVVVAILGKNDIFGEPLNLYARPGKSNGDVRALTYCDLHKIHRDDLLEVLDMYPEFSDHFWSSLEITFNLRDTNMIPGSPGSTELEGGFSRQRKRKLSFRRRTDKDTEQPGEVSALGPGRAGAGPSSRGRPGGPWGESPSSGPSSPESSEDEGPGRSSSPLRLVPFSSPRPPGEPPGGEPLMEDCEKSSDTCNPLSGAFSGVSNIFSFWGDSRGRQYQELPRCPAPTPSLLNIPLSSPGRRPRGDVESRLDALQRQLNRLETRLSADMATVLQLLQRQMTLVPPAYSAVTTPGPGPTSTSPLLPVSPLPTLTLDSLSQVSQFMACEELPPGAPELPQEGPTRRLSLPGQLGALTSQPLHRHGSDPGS

[3] = Metabolic stability in monkey liver microsomes assessed as intrinsic clearance preincubated for 5 mins followed by NADPH addition measured for 1 hr by LC-MS analysis; assay type: ADME, Macaca mulatta, Microsome; conditions: rhesus monkey, time 65 min, read-out: CLH
Cytochrome P450 2C19 = Cytochrome P450 2C19 (Homo sapiens, UniProt P33261); experiment: Inhibition of CYP2C19 in human liver microsomes using mephenytoin as substrate preincubated for 10 mins followed by substrate addition measured for 30 mins by LC-MS analysis; assay type: ADME, Microsome
Sequence of Cytochrome P450 2C19 (P33261 whole entry): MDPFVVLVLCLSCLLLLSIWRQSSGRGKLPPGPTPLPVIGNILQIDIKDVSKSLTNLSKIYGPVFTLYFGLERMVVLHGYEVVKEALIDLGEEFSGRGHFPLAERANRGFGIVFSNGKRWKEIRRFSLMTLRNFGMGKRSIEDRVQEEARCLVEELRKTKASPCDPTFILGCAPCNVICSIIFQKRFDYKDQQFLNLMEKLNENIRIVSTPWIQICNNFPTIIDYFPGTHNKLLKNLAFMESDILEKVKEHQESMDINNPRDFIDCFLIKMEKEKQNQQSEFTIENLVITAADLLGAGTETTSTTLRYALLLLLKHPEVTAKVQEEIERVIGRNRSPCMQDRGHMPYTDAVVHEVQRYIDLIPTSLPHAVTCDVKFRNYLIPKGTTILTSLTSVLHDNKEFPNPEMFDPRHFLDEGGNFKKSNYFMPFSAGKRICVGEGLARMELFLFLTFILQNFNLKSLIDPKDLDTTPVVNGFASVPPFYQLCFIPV

[4] = AUC in fasted ICR mouse at 2 mg/kg, iv measured for 24 hrs by LC-MS analysis; assay type: ADME, organism-based; conditions: in vivo
[5] = Plasma protein binding in dog at 2 uM incubated for 1 hr by LC/MS analysis; assay type: ADME, cell-free, Canis lupus familiaris; conditions: read-out: PPB (converted)
[6] = Kinetic solubility of compound at pH 6.5; assay type: physicochemical; conditions: buffer, read-out: Kinetic_solubility
[7] = Clearance in fasted ICR mouse at 2 mg/kg, iv measured for 24 hrs by LC-MS analysis; assay type: ADME, organism-based; conditions: in vivo
[8] = AUC in fasted Beagle dog at 10 mg/kg, po measured for 24 hrs by LC-MS analysis; assay type: ADME, organism-based, Canis lupus familiaris; conditions: in vivo
[9] = Clearance in fasted Beagle dog at 2 mg/kg, iv measured for 24 hrs by LC-MS analysis; assay type: ADME, organism-based, Canis lupus familiaris; conditions: in vivo
[10] = Oral bioavailability in fasted Beagle dog at 10 mg/kg measured for 24 hrs by LC-MS analysis; assay type: ADME, organism-based, Canis lupus familiaris; conditions: in vivo
[11] = AUC in fasted ICR mouse at 10 mg/kg, po measured for 24 hrs by LC-MS analysis; assay type: ADME, organism-based; conditions: in vivo
[12] = Kinetic solubility of compound at pH 2; assay type: physicochemical; conditions: buffer, read-out: Kinetic_solubility
[13] = Plasma protein binding in rat at 2 uM incubated for 1 hr by LC/MS analysis; assay type: ADME, cell-free; conditions: read-out: PPB (converted)
MDA-MB-436 = experiment: Antiproliferative activity against human MDA-MB-436 cells assessed as inhibition of cell viability at 0.1 uM incubated for 7 days by luminescence based assay; assay type: functional; conditions: time 7.0 day
[14] = Cmax in fasted ICR mouse at 10 mg/kg, po measured for 24 hrs by LC-MS analysis; assay type: ADME, organism-based; conditions: in vivo
[15] = target: T1, Protein mono-ADP-ribosyltransferase PARP12 (Homo sapiens, UniProt Q9H0J9); experiment: Inhibition of PARP12 (unknown origin)
T1 sequence (Q9H0J9 whole entry): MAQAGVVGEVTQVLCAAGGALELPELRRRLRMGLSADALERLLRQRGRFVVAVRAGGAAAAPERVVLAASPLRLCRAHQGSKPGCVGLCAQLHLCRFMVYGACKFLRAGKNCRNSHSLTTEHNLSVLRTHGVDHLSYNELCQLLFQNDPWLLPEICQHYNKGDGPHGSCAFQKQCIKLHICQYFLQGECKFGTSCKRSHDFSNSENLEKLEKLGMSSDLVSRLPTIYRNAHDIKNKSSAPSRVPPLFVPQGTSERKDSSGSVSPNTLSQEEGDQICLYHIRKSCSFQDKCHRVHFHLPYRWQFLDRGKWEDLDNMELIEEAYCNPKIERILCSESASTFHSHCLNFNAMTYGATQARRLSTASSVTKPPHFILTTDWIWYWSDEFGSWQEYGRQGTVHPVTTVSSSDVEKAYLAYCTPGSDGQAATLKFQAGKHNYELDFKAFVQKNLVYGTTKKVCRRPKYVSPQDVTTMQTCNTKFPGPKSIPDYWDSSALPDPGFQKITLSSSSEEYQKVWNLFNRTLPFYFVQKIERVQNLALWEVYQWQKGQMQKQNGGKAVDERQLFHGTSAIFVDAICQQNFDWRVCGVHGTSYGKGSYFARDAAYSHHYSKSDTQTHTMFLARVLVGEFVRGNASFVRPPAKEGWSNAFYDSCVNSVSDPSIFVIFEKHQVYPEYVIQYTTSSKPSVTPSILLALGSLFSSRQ

Cytochrome P450 2D6 = Cytochrome P450 2D6 (Homo sapiens, UniProt P10635); experiment: Inhibition of CYP2D6 in human liver microsomes using dextromethorphan as substrate preincubated for 10 mins followed by substrate addition measured for 30 mins by LC-MS analysis; assay type: ADME, Microsome
Sequence of Cytochrome P450 2D6 (P10635 whole entry): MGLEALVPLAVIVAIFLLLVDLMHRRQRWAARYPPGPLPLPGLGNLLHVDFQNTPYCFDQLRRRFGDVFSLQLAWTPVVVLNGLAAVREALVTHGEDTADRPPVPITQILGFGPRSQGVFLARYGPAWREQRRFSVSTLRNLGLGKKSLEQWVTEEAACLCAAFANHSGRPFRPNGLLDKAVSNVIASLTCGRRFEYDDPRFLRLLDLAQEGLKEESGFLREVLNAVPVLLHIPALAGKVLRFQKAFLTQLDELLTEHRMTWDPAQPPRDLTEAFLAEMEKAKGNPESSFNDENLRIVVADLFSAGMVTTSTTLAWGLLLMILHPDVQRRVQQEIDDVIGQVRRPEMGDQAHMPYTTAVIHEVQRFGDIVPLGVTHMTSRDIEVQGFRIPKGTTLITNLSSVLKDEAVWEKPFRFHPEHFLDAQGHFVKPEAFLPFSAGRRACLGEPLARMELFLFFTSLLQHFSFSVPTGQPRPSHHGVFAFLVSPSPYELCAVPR

[16] = Thermodynamic solubility of compound at pH 2; assay type: physicochemical; conditions: buffer, read-out: Therm_solubility
[17] = Thermodynamic solubility of compound at pH 7.4; assay type: physicochemical; conditions: buffer, read-out: Therm_solubility
Cytochrome P450 3A4 = Cytochrome P450 3A4 (Homo sapiens, UniProt P08684); experiment: Inhibition of CYP3A4 in human liver microsomes using midazolam as substrate preincubated for 10 mins followed by substrate addition measured for 30 mins by LC-MS analysis; assay type: ADME, Microsome
Sequence of Cytochrome P450 3A4 (P08684 whole entry): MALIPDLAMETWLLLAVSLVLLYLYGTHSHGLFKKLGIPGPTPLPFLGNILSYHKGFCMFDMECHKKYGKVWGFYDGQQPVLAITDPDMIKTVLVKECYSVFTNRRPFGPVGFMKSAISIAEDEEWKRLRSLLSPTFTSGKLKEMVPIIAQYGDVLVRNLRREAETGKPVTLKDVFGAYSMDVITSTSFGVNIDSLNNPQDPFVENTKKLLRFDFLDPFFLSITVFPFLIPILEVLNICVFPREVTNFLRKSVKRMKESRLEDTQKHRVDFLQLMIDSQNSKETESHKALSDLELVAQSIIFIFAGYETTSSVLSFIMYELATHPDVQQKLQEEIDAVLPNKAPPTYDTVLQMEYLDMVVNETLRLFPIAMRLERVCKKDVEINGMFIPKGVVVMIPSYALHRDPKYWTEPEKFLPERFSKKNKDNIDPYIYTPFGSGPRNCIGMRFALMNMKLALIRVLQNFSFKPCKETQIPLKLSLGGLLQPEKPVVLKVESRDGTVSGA

[18] = target: T2, Protein mono-ADP-ribosyltransferase TIPARP (Homo sapiens, UniProt Q7Z3E1); experiment: Inhibition of PARP7 (unknown origin) using histone as substrate incubated for 1 hr by chemiluminescence assay
T2 sequence (Q7Z3E1 whole entry): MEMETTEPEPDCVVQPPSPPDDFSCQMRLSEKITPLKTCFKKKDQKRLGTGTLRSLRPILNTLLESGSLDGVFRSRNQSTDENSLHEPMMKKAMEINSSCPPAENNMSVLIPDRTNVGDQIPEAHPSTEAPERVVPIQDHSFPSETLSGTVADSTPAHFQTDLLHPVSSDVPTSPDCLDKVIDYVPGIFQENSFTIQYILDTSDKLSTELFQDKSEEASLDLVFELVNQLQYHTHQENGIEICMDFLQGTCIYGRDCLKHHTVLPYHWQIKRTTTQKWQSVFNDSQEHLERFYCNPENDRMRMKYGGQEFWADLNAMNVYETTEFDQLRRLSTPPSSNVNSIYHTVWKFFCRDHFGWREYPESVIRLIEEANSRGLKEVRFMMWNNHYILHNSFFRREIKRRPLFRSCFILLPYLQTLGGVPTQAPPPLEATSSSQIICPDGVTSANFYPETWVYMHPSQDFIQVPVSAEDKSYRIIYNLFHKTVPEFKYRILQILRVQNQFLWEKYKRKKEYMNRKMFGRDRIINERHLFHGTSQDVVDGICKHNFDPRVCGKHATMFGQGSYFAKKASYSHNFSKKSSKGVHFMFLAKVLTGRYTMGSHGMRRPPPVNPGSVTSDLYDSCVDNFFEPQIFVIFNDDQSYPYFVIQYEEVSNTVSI

RAW264.7 = experiment: Inhibition of PARP7 in mouse RAW264.7 cells assessed as increase in IFN-beta level incubated for 24 hrs by ELISA; assay type: cell-based
[19] = Metabolic stability in mouse liver microsomes assessed as intrinsic clearance preincubated for 5 mins followed by NADPH addition measured for 1 hr by LC-MS analysis; assay type: ADME, Microsome; conditions: time 65 min, read-out: CLH
NCI-H1373 = experiment: Antiproliferative activity against human NCI-H1373 cells assessed as inhibition of cell viability incubated for 4 days by luminescence based assay; conditions: NCI-H1373, 96 h

With `O=C(CCOC[C@@H]1CCN1c1cn[nH]c(=O)c1C(F)(F)F)N1CCN2c3ncc(C(F)(F)F)cc3OC[C@@H]2C1` as the compound, how does the half-life [1] read?
The half-life was 1.3 h.

And the “inhibition (INH)” value [2]?
Its value is “Not Active”.

What about the CLint scaled [3] of the same compound?
Its CLint scaled is 79.2 mL/min/kg.

What about the IC50 (Cytochrome P450 2C19) of the same compound?
The IC50 was 7550 nM.

And the AUC at 24 h [4]?
The AUC at 24 h was 680 ng·h/mL.

What about the fraction unbound at 1 h, 2 µM [5] of the same compound?
Its fraction unbound at 1 h, 2 µM is 0.006.

And the solubility kinetic [6]?
The solubility kinetic was 154 µM (≈ 86.6 µg/mL).

And the clearance [7]?
Its clearance is 49.2 mL/min/kg.

What about the AUC [8] of the same compound?
Its AUC is 7860 ng·h/mL.

And the clearance [9]?
The clearance was 7.5 mL/min/kg.

What about the bioavailability [10] of the same compound?
Its bioavailability is 45.2%.

What about the AUC [11] of the same compound?
The AUC was 1146 ng·h/mL.

What about the solubility kinetic [12] of the same compound?
Its solubility kinetic is 166 µM (≈ 93.4 µg/mL).

And the fraction unbound at 1 h, 2 µM [13]?
Its fraction unbound at 1 h, 2 µM is 0.044.

What about the Activity (MDA-MB-436) of the same compound?
Its Activity is “inactive”.

What about the Cmax [14] of the same compound?
The Cmax was 752 ng/mL.

And the IC50 [15]?
Its IC50 is 360 nM.

And the IC50 (Cytochrome P450 2D6)?
The IC50 was > 30000 nM.

And the solubility thermodynamic [16]?
Its solubility thermodynamic is 601 µg/mL (≈ 1070 µM).

What about the solubility thermodynamic [17] of the same compound?
The solubility thermodynamic was 114 µg/mL (≈ 203 µM).

And the IC50 (Cytochrome P450 3A4)?
The IC50 was > 30000 nM.

What about the IC50 [18] of the same compound?
Its IC50 is 0.56 nM.

What about the inhibition (RAW264.7) of the same compound?
The inhibition was “Active”.

And the CLint scaled [19]?
Its CLint scaled is 141 mL/min/kg.

What about the IC50 (NCI-H1373) of the same compound?
Its IC50 is 4.1 nM.
